Experimental data from US20220168392A1 (priority 2019, published 2022).
Square brackets hold non-standard residues; d marks the D form. * marks the point of attachment. 2Nal = N[C@@H](Cc1ccc2ccccc2c1)C(=O)O; Propionyl = CCC(=O)*; Sar = CNCC(=O)O

Test system: healthy rhesus monkeys
Assay: Maximum platelet count to baseline in healthy rhesus monkeys, escalating doses
Type: in vivo, rhesus monkey
Set-up: key to pharmacodynamics (PD) effect class of the dose (beneficial effects on survival): **: large pharmacodynamics (PD) effect; *: modest effect
Method: A pilot PK/PD study was performed to evaluate the efficacy of RWJ-800088 in rhesus monkeys (Study No. 2016-2693—CiToxLAB North America). Rhesus monkeys (n=10/group, 5 male/5 female) were treated with vehicle or RWJ-800088 (a single dose of 30 mg/kg RWJ-800088) administered 24 hours post TBI gamma radiation (600 cGY). […] The ratio of the maximum platelet count to baseline following escalating doses of RWJ-800088 to healthy rhesus monkeys is as follows: 0.97±0.06× at 0.5 mg/kg, 1.08±0.15× at 2 mg/kg, 1.98±0.16× at 10 mg/kg, 2.9±0.03× at 20 mg/kg, and 3.83±0.11× at 40 mg/kg).
The ratio of the maximum platelet counts to the baseline platelet counts following single escalating doses of RWJ-800088 to mice, rats, dogs, rhesus monkeys and human healthy volunteers is shown in Table 5. The dose required to achieve a 2-3.5-fold elevation in humans is ˜100-fold lower compared to mice, ˜1,000-fold lower compared to rats and >10,000-fold lower compared to canines and NHPs. […] The species differences in potency has been described for other TPO mimetics in the literature and is attributed to differences in receptor affinity (Erickson-Miller C L, et al. Discovery and characterization of a selective, nonpeptidyl thrombopoietin receptor agonist. Exp. Hematol. 2005; 33:85-93). […] It is discovered that the dose of RWJ-800088 that produces a survival benefit and protects against vascular and organ injury is the dose that produces a 2-4 fold elevation of platelets (Table 6).

## methoxypolyethyleneglycol20000-propionyl-L-Isoleucyl-L-Glutamyl-Glycyl-L-Prolyl-L-Threonyl-L-Leucyl-L-Arginyl-L-Glutaminyl-L-2-Naphthylalanyl-L-Leucyl-L-Alanyl-L-Alanyl-L-Arginyl-Sarcosyl-Ne-(methoxypolyethyleneglycol20000-propionyl-L-Isoleucyl-L-Glutamyl-Glycyl-L-Prolyl-L-Threonyl-L-Leucyl-L-Arginyl-L-Glutaminyl-L-2-Naphthylalanyl-L-Leucyl-L-Alanyl-L-Alanyl-L-Arginyl-Sarcosyl-)-Lysinamide ({mPEG 20 kDa-Propionyl}-IEGPTLRQ[2Nal]LAAR[Sar]K-NH2; also: dimer: second identical mPEG-propionyl chain on Lys Nε of C-terminal lysinamide) [RWJ-800088]
0.5 mg/kg
  ratio of the maximum platelet count to baseline: 0.97±0.06 ×
2 mg/kg
  ratio of the maximum platelet count to baseline: 1.08±0.15 ×
10 mg/kg
  ratio of the maximum platelet count to baseline: 1.98±0.16 ×
20 mg/kg
  ratio of the maximum platelet count to baseline: 2.9±0.03 ×
40 mg/kg
  ratio of the maximum platelet count to baseline: 3.83±0.11 ×
CiToxLAB North America Study No. 2016-2693, dose 30000 μg/kg
  NHP Max Platelet Ratio: 3.25
Monkey, dose 40000 μg/kg
  Average of the Maximum Platelet Elevation/Baseline Platelet Counts: 3.83
NHP, dose 30000 μg/kg
  pharmacodynamics (PD) effect class of the dose (beneficial effects on survival): *
Rhesus
  Dose for 2.0-4x Platelet Elevation in Healthy Subjects: ≥30 mg/kg
TOX9795/B201016-K013, dose 500 μg/kg
  NHP Max Platelet Ratio: 0.9 ± 0.1
TOX9795/B201016-K013, dose 2000 μg/kg
  NHP Max Platelet Ratio: 1.1 ± 0.1
TOX9795/B201016-K013, dose 10000 μg/kg
  NHP Max Platelet Ratio: 2.9 ± 0.0
TOX9795/B201016-K013, dose 40000 μg/kg
  NHP Max Platelet Ratio: 3.8 ± 0.1
